From the NIST ThermoML archive (doi:10.1021/je300517q) come the findings set out here.

The conditions of series [1]: Crystal; DTA.
Series [2] in a line: Molar enthalpy of transition or fusion. The settings on record: Crystal; DSC.

Numbers after ± are expanded uncertainties.

On to `Nc1cccnn1` [3-pyridazinamine], for which, in series [1], the Normal melting temperature was determined as 169.47 ± 0.39 °C. Further, the “Molar enthalpy of transition or fusion” value in series [2] amounted to 0.629 ± 0.0406 kcal/mol.
